{
  "source": "patent US10391160B2",
  "about": "“Dimethyl fumarate and vaccination regimens” (Biogen MA Inc., priority 2014, dated 2019)",
  "assay": "healthy volunteer study of flushing on DMF dosing with aspirin pre-treatment",
  "type": "in vivo, human",
  "settings": "325 mg non-enteric coated aspirin 30 minutes prior to DMF dosing; healthy volunteers",
  "procedure": "Subjects receiving a vaccine who experience flushing may be administered (e.g., 30 min. prior to DMF dosing) about 325 mg of aspirin to reduce flushing. Some patients who experience flushing with gastrointestinal side effects may reduce the dose to 120 mg DMF BID temporarily. Within a month, the effective dose of 240 mg DMF BID should be resumed.",
  "data": [
    {"smiles": "CC(=O)Oc1ccccc1C(=O)O", "note": "[aspirin]", "values": [
      {"measurement": "occurrence and severity of flushing", "result": "reduce the occurrence and severity of flushing"}
    ]}
  ]
}
